In brackets after ≈: the same amount, converted by molar mass.
Legend:
CMV AD169^IE2-YFP = test: Anti-CMV activity (IC50) of NAPA compounds, AD169 IE2-YFP reporter virus high-content assay in fibroblasts; format: cell-based, Human cytomegalovirus; conditions: Human betaherpesvirus 5, AD169, Fibroblast
Procedure: To identify CMV inhibitors, a high-content screening (HCS) early-stage-specific reporter assay using a CMV AD169 yellow-fluorescent protein (YFP) expressing virus (AD169^IE2-YFP) (Gardner et al., Antiviral Res., 113:49-61 (2015)) was developed to screen >112,000 compounds to identify potent inhibitors (IC50<10 μM) of cytomegalovirus having a minimal mammalian cytotoxicity (CC50) of preferably ≥100 μM. As a result, we have identified, isolated, and characterized a novel series of N-arylpyrimidinamines (NAPAs) that inhibit CMV infection. […] Further, the NAPA compounds are broadly effective at inhibiting virus infection of diverse strains and cell types.
The CMV IE1 and IE2 gene products are translated within 3-6 hours post infection (hpi) and function to stimulate viral promoters to initiate transcription of early and late viral genes (Cherrington et al., J. Virol., 63:1435-40 (1989); Meier et al., J. Virol., 71:1246-1255 (1997)). The CMV AD169 variant that expresses a viral protein chimera consisting of IE2-YFP (AD1691E2/YFP) was utilized to quantify virus infection in a high-throughput screen by a robust fluorescent signal localized exclusively to the nucleus (8-24 hpi) (Gardner et al., supra (2015); Cohen et al., Viruses, 8 (10): 295 (2016); Cohen et al., J. Virol., 90:10715-10727 (2016)). Using the AD1691E2-YFP reporter virus assay, a collection of the compound libraries (>112,000 compounds) was screened for inhibitors of the early stages of CMV replication using a confocal fluorescence microscopic plate reader (BioTek Cytation3). Infection was calculated as a percentage of nuclei containing YFP and cycloheximide (8 μM) was used as a positive control. The Z′ factor for the optimized assay was >0.5 which was sufficient to initiate screening.
We evaluated 300 primary hits using an assay funnel designed to prioritize compounds based on antiviral activity, specificity, and drug-like properties. This identified two candidates for hit-to-lead optimization that were not Pan Assay Interference compounds (PAINS) (Baell et al., J. Med. Chem., 53:2719-40 (2010); Capuzzi et al., J. Chem. Inf. Model 57:417-427 (2017); Dahlin et al., Assay Drug Dev. Technol., 14:168-174 (2016)). […] The NAPA series was chosen as the primary hit-to-lead series due to its synthetic accessibility and the >2-log range in potency observed in the preliminary SAR that provides a clear pathway to improving antiviral activity and drug-like properties.

[1] = Cytotoxicity (CC50) against Hela cells for 3 d; format: cell-based; conditions: human
[2] = Maximum solubility in water by nephlometry; format: physicochemical; conditions: Maximum solubility in water determined by nephlometry; for solubility kinetic: kinetic from dmso stock
[3] = Murine liver microsome stability; format: in vitro ADME; conditions: % remaining after 30 min at 37° C. in the presence of NADPH
CYP3A4 = CYP3A4 (Homo sapiens, UniProt P08684); test: CYP3A4 inhibition at 10 μM; format: in vitro ADME; conditions: % inhibition of CYP3A4 at 10 μM
Sequence of CYP3A4 (P08684 whole entry, species assumed): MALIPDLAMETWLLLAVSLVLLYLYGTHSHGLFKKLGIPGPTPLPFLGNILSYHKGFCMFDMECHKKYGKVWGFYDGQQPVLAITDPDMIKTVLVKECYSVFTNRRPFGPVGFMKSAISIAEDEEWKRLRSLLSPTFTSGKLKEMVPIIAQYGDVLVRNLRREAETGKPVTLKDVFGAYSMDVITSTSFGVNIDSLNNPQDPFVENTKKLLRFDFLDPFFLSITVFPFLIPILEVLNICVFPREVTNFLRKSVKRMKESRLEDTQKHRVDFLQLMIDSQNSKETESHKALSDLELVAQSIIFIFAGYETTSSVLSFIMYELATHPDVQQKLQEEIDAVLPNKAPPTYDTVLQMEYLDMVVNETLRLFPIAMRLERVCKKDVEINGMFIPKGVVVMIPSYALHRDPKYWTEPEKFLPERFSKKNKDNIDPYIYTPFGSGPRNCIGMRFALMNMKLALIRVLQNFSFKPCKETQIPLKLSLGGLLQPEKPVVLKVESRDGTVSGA

HCMV strain AD169^R = test: CMV infection (neutralization) assay, GFP/IE1 readout 24 hpi, AD169^R; format: cell-based, Human cytomegalovirus
Procedure: (§1) Fibroblasts and ARPE-19 cells (10^4) were plated in 96-well plates (Greiner, Monroe, NC). The following day the cells were pretreated for 1 hour at 37° C. with increasing concentrations of the respective novel NAPA compounds described herein or DMSO in triplicate prior to infection with the respective viruses. At 18 hours post infection (hpi) cells were stained using a rabbit anti-IE1 antibody followed by an anti-rabbit Alexa 647 and measured using a Celigo Cytometer (Parsons et al., Antiviral Res., 193:105124 (2021); Stein et al., Nat. Commun., 10:2699 (2019)). Using the DMSO treated cells as 100% infection, the percent infection of the NAPA compound-treated cells was determined. The half maximal inhibitory (IC50) values were calculated using Prism9's nonlinear fit [inhibitor]-vs-response (four parameters) analysis of these averages and extrapolation to the concentration that would produce 50% infection relative to DMSO treatment.
(§2) To further evaluate the inhibitory properties of MBXC-4302 against CMV, we utilized the AD169 CMV virus strain containing the UL131-UL128 open reading frame of the HCMV strain TR and expressing EGFP (AD169^R) (Wang D. and Shenk T., Proc. Nat. Acad. Sci., USA, 102:18153-18158 (2005)) and TB40/E infection of human fibroblasts (NHDF) and ARPE-19 epithelial cells in the presence of increasing concentration of compound (FIG. 2A-D). Infection was analyzed 24 hours post infection (hpi) by measuring GFP fluorescence encoded by AD169^R or using an anti-IE1 antibody for staining TB40/E infected cells.
NAPA variants with modified groups were evaluated for inhibition of CMV infection in fibroblasts. AD169^R infected fibroblasts were treated with NAPA compounds MBX-4992, MBXC-4325, MBXC-4330, and MBXC-4336 (0-50 μM) and analyzed for infection at 24 hpi (FIG. 6A-D). The infected cells were probed for IE1 as an indication of virus infection.

HCMV strain TB40/E = test: CMV infection (neutralization) assay, IE1 immunostain 24 hpi, TB40/E; format: cell-based, Human cytomegalovirus
Procedure: as §1, with “The half maximal inhibitory (IC50) values were calculated using Prism9's nonlinear fit [inhibitor]-vs-response (four parameters) analysis of these averages and extrapolation to the concentration that would produce 50% infection relative to DMSO treatment.” left out
as §2

AD169^R (IE1 expression) = test: Western blot (immunoblot) of IE1 expression in AD169^R-infected cells; format: cell-based, Human cytomegalovirus; conditions: NHDF cells, 24 hpi; MBX-4992 1-10 μM, ganciclovir 5 μM, convallotoxin 0.01 μM
Procedure: The molecular weight markers and respective proteins are indicated.
FIGS. 12A and B are Western Blot assays showing that MBXC-4336 limits expression of IE1 in fibroblasts and epithelial cells. Total cell lysates from AD169^R-infected (MOI 0.2) NHDF (A) and ARPE-19 (B) cells pre-treated with DMSO, MBX-4336 (0, 1, 5, 10, or 20 μM), or heparin (50 μg/mL) collected at 48 hpi were subjected to Western blot analysis using a rabbit anti-IE-1 antibody (lanes 1-7) and an anti-GAPDH antibody (lanes 8-14) as a loading control. The molecular weight markers and respective proteins are indicated.
Total cell lysates from virus infected NHDF cells treated with compounds were created through SDS-lysis (10^4/100 uL of 1% SDS) of at least three rounds of heating at 95° C. for 3 min and vigorous agitation. The total cell lysates were resolved using an SDS-polyacrylamide gel (12.5%), transferred to a PVDF membrane using a semi-dry apparatus. The membrane was then incubated with 1% BSA/PBS for 1 hr at room temperature followed by incubation with anti-IE1 and anti-GAPDH. Finally, the respective secondary antibody conjugated with HRP was incubated with membrane followed by detection using ECL reagents (Millipore).
Next, inhibition of the expression of IE1 in AD169^R-infected cells treated with MBX-4992 was examined by immunoblot analysis (FIG. 4E). […] Collectively, these findings further indicate that MBX-4992 effectively prevents the expression of the immediate-early genes during a CMV infection.

SMILES | IC50 (CMV AD169^IE2-YFP) [µM] | CC50 at 3 d [1] [µM] | solubility kinetic [2] [µM] | MLMS [3] | CYP (CYP3A4) | Sol [2] | IC50 (HCMV strain AD169^R; Human betaherpesvirus 5, AD169, ARPE-19) [µM] | IC50 (HCMV strain AD169^R; Human betaherpesvirus 5, AD169, NHDF) [µM] | IC50 (HCMV strain TB40/E; Human betaherpesvirus 5, ARPE-19) [µM] | IC50 (HCMV strain TB40/E; Human betaherpesvirus 5, NHDF) [µM] | IE1 expression by immunoblot (AD169^R (IE1 expression))
Cc1nc(Nc2ccc(NC(=O)c3ccco3)cc2)cc(N(C)C)n1 [MBX-4991] | 2.3 | > 100 | > 200 | 65% | 18% | – | – | – | – | – | –
Cc1nc(Nc2ccc(NC(=O)c3cccs3)cc2)cc(N(C)C)n1 [MBXC-4294] | > 40 | 57 | – | – | – | – | – | – | – | – | –
Cc1nc(Nc2ccc(NC(=O)c3ccco3)cc2)cc(N2CCCCC2)n1 [MBXC-4295] | 0.46 | 54 | 50 (≈ 18.9 µg/mL) | 36% | <10% | – | – | – | – | – | –
Cc1ccc(Nc2cc(Nc3ccc(NC(=O)c4ccco4)cc3)nc(C)n2)cc1 [MBXC-4297] | 0.37 | 21 | 25 (≈ 9.99 µg/mL) | 44% | <10% | – | – | – | – | – | –
CCNc1cc(Nc2ccc(NC(=O)c3ccco3)cc2)nc(C)n1 [MBXC-4298] | 3.7 | 29 | 200 (≈ 67.5 µg/mL) | 64% | 50% | – | – | – | – | – | –
Cc1ccc(Nc2nc(C)cc(Nc3ccc(NC(=O)c4ccco4)cc3)n2)cc1 [MBXC-4299] | 0.32 | 5.5 | – | 68% | < 10% | – | – | – | – | – | –
Cc1ccc(Nc2nc(C)cc(Nc3ccc(NC(=O)Nc4cccc(Cl)c4)cc3)n2)cc1 [MBXC-4300] | 3.8 | 2.7 | – | N/A 60% | N/A 10% | N/A 3.1 μM | – | – | – | – | –
Cc1ccc(Nc2nc(C)cc(Nc3ccc(NS(=O)(=O)c4ccccc4)cc3)n2)cc1 [MBXC-4301] | 24 | 11 | – | – | – | – | – | – | – | – | –
Cc1nc(Nc2ccc(NC(=O)c3ccco3)cc2)cc(-n2cccn2)n1 [MBXC-4302] | 3.2 | > 100 | 12.5 (≈ 4.5 µg/mL) | 62% | <10% | – | 5.8 | 3 | ~5.3 | ~5.3 | –
Cc1cc(Nc2ccccc2)nc(Nc2ccc(NC(=O)c3ccc(Cl)cc3)cc2)n1 [MBXC-4303] | 20 | 7 | – | – | – | – | – | – | – | – | –
Cc1ccc(Nc2cc(C)nc(Nc3ccc(NC(=O)c4ccco4)cc3)n2)cc1 [MBXC-4304] | 0.48 | 5.8 | – | 63% | 16% | – | – | – | – | – | –
C[C@@H]1O[C@@H](O[C@H]2CC[C@]3(C=O)[C@H]4CC[C@]5(C)[C@@H](C6=CC(=O)OC6)CC[C@]5(O)[C@@H]4CC[C@]3(O)C2)[C@H](O)[C@H](O)[C@H]1O [convallatoxin, reference compound] | – | – | – | – | – | – | – | – | – | – | prevented infection

Reference: patent US20250177392A1, “BROAD SPECTRUM INHIBITORS OF CYTOMEGALOVIRUS” (MICROBIOTIX, INC., priority 2022, published 2025)
